PubChem BioAssay AID330 (DTP/NCI, 2004)
Values joined by “and” are separate entries in the source; they are usually repeats but may differ in a detail not shown here. Identical values can stand only once. Toxic doses and inconclusive results are not listed. How the source made its calls: active means survival T/C of 150% or more; inactive means T/C below 125% in these data.

Test system: P388 leukemia ip, CD2F1 mice, survival T/C
Experiment: NCI In Vivo Anticancer Drug Screen. Data for tumor model P388 Leukemia (intraperitoneal) in CD2F1 (CDF1) mice
Settings: endpoint: median survival time, higher = longer survival
Method in brief: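 Mice carrying the transplanted tumor received test compound or vehicle. Survival was recorded in each group, and the value is the treated-group measurement divided by that of the vehicle-treated control group.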

[1] = dose: 50.0 mg/kg/injection, schedule: Q01DX005 (ip), vehicle: saline
[2] = dose: 100.0 mg/kg/injection, schedule: Q04DX003 (ip), vehicle: saline
[3] = dose: 25.0 mg/kg/injection, schedule: Q01DX009 (ip), vehicle: saline with Tween-80
[4] = dose: 50.0 mg/kg/injection, schedule: Q01DX009 (ip), vehicle: Klucel (hydroxypropylcellulose) (HPC)
[5] = dose: 100.0 mg/kg/injection, schedule: Q01DX009 (ip), vehicle: Klucel (hydroxypropylcellulose) (HPC)
[6] = dose: 200.0 mg/kg/injection, schedule: Q01DX009 (ip), vehicle: Klucel (hydroxypropylcellulose) (HPC)
[7] = dose: 50.0 mg/kg/injection, schedule: Q01DX005 (ip), vehicle: Klucel (hydroxypropylcellulose) (HPC)
[8] = dose: 100.0 mg/kg/injection, schedule: Q01DX005 (ip), vehicle: Klucel (hydroxypropylcellulose) (HPC)
[9] = dose: 200.0 mg/kg/injection, schedule: Q01DX005 (ip), vehicle: Klucel (hydroxypropylcellulose) (HPC)
[10] = dose: 60.0 mg/kg/injection, schedule: Q01DX005 (ip), vehicle: saline with Tween-80
[11] = dose: 120.0 mg/kg/injection, schedule: Q01DX005 (ip), vehicle: saline with Tween-80
[12] = dose: 240.0 mg/kg/injection, schedule: Q01DX005 (ip), vehicle: saline with Tween-80
[13] = dose: 60.0 mg/kg/injection, schedule: Q01DX005 (ip), vehicle: saline
[14] = dose: 120.0 mg/kg/injection, schedule: Q01DX005 (ip), vehicle: saline
[15] = dose: 50.0 mg/kg/injection, schedule: Q01DX009 (ip), vehicle: saline with Tween-80
[16] = dose: 100.0 mg/kg/injection, schedule: Q01DX009 (ip), vehicle: saline with Tween-80
[17] = dose: 50.0 mg/kg/injection, schedule: Q01DX005 (ip), vehicle: saline with Tween-80
[18] = dose: 100.0 mg/kg/injection, schedule: Q01DX005 (ip), vehicle: saline with Tween-80
[19] = dose: 200.0 mg/kg/injection, schedule: Q01DX005 (ip), vehicle: saline with Tween-80

Measured: T/C

CCN(CC)CCOC(=O)C(C)Oc1c2ccoc2c(OC)c2oc(C)cc(=O)c12 (stereo not given)
inactive: [1] 102 % of control | dose: 100.0 mg/kg/injection, schedule: Q01DX005 (ip), vehicle: saline 106 % of control | dose: 200.0 mg/kg/injection, schedule: Q01DX005 (ip), vehicle: saline 101 % of control

CSCC1COC(=O)N1 (stereo not given)
inactive: dose: 100.0 mg/kg/injection, schedule: Q04DX002 (ip), vehicle: distilled water + alcohol 100 % of control | dose: 200.0 mg/kg/injection, schedule: Q04DX002 (ip), vehicle: distilled water + alcohol 106 % of control | dose: 400.0 mg/kg/injection, schedule: Q04DX002 (ip), vehicle: distilled water + alcohol 100 % of control

CC(=O)O.[Pb]
inactive: dose: 25.0 mg/kg/injection, schedule: Q04DX003 (ip), vehicle: saline with Tween-80 100 % of control | dose: 50.0 mg/kg/injection, schedule: Q04DX003 (ip), vehicle: saline with Tween-80 100 % of control | [2] 91 % of control

COc1cc(OC)c(C(=O)CCl)c(O)c1Cl
inactive: [3] 113 % of control | dose: 66.0 mg/kg/injection, schedule: Q01DX009 (ip), vehicle: saline with Tween-80 110 % of control

COc1ccc(C2CC(=O)N(c3cccc(C)n3)C(=O)C2)cc1
inactive: [2] 100 % of control | dose: 200.0 mg/kg/injection, schedule: Q04DX003 (ip), vehicle: saline 100 % of control | dose: 400.0 mg/kg/injection, schedule: Q04DX003 (ip), vehicle: saline 108 % of control

CSCC(C)C(N)C(=O)O (stereo not given)
inactive: [4] 109 % of control | [5] 105 % of control | [6] 100 % of control

CC(C)C12CCC3(CCC4C(C)(C(=O)O)CCCC4(C)C3C1)C(CN)C2 (stereo not given)
inactive: dose: 25.0 mg/kg/injection, schedule: Q01DX005 (ip), vehicle: Klucel (hydroxypropylcellulose) (HPC) 101 % of control | [7] 106 % of control | [8] 99 % of control | [9] 100 % of control

CCC(CC)C(=O)NC(=O)NC(N)=O
inactive: [10] 97 % of control | [11] 97 % of control | [12] 112 % of control

Nc1ccccc1N1C(c2ccccc2)=CC(=O)N2CCN=C21
inactive: [4] 90 % of control | [5] 101 % of control | [6] 95 % of control

CCCCN(CCCC)CC(O)c1c(C)c2ccccc2c2ccccc12 (stereo not given)
inactive: dose: 9.0 mg/kg/injection, schedule: Q01DX009 (ip), vehicle: saline with Tween-80 100 % of control | dose: 18.0 mg/kg/injection, schedule: Q01DX009 (ip), vehicle: saline with Tween-80 100 % of control | dose: 36.0 mg/kg/injection, schedule: Q01DX009 (ip), vehicle: saline with Tween-80 100 % of control

Cc1ccc(/C=C/C(=N/NC(=O)c2ccccc2)C(C)CN(C)C)cc1 (stereo not given)
inactive: [13] 99 % of control | [14] 111 % of control

COc1ccc(C(Nc2ncccn2)c2cc(C(C)(C)C)cc(C(C)(C)C)c2O)cc1 (stereo not given)
inactive: dose: 50.0 mg/kg/injection, schedule: Q01DX005 (ip), vehicle: distilled water + alcohol 101 % of control | dose: 100.0 mg/kg/injection, schedule: Q01DX005 (ip), vehicle: distilled water + alcohol 101 % of control | dose: 200.0 mg/kg/injection, schedule: Q01DX005 (ip), vehicle: distilled water + alcohol 97 % of control

Cc1cc(Cl)cc2[s+]snc12
inactive: [10] 100 % of control | [11] 101 % of control | [12] 92 % of control

CCCNCCC(O)c1cc(C(F)(F)F)nc2c(C(F)(F)F)cccc12 (stereo not given)
inactive: [3] 102 % of control | [15] 110 % of control | [16] 109 % of control

C#CCCCOC1CCCCO1 (stereo not given)
inactive: [13] 100 % of control | [14] 100 % of control | dose: 240.0 mg/kg/injection, schedule: Q01DX005 (ip), vehicle: saline 100 % of control

CCOP(=O)(O)OCC.[Sc]
inactive: dose: 100.0 mg/kg/injection, schedule: Q04DX002 (ip), vehicle: saline with Tween-80 93 % of control | dose: 200.0 mg/kg/injection, schedule: Q04DX002 (ip), vehicle: saline with Tween-80 101 % of control | dose: 400.0 mg/kg/injection, schedule: Q04DX002 (ip), vehicle: saline with Tween-80 104 % of control

CC1=CC(C)(C)N=C(N)N1
inactive: dose: 12.5 mg/kg/injection, schedule: Q01DX005 (ip), vehicle: saline 98 % of control | dose: 25.0 mg/kg/injection, schedule: Q01DX005 (ip), vehicle: saline 97 % of control | [1] 105 % of control and 91 % of control

CCN(CC)CCN1N=C(c2ccccc2O)OCC1=O
inactive: [15] 108 % of control | [16] 103 % of control | dose: 200.0 mg/kg/injection, schedule: Q01DX009 (ip), vehicle: saline with Tween-80 98 % of control

Cc1ccc(-n2nc(C(O)C(O)C(O)CO)c3nc4cc(C)c(C)cc4nc32)cc1 (stereo not given)
inactive: dose: 25.0 mg/kg/injection, schedule: Q01DX005 (ip), vehicle: saline with Tween-80 98 % of control | [17] 100 % of control and 90 % of control | [18] 102 % of control | [19] 100 % of control

COc1ccc2[nH]c(=O)c(C(C)=O)c(O)c2c1
inactive: [17] 103 % of control | [18] 105 % of control | [19] 101 % of control

O=C1CC2OCCC3CN4CCC56c7ccccc7N1C5C2C3CC46 (stereo not given)
inactive: dose: 7.5 mg/kg/injection, schedule: Q01DX005 (ip), vehicle: Klucel (hydroxypropylcellulose) (HPC) 101 % of control | dose: 15.0 mg/kg/injection, schedule: Q01DX005 (ip), vehicle: Klucel (hydroxypropylcellulose) (HPC) 98 % of control | dose: 30.0 mg/kg/injection, schedule: Q01DX005 (ip), vehicle: Klucel (hydroxypropylcellulose) (HPC) 98 % of control

CC1(C)OC(=O)C(=Cc2ccc(-c3ccccc3[N+](=O)[O-])o2)C(=O)O1
inactive: [7] 92 % of control | [8] 105 % of control | [9] 100 % of control

NC(Cc1ccc2c(c1)OCO2)c1ccc2c(c1)OCO2 (stereo not given)
inactive: [7] 101 % of control | [8] 99 % of control | [9] 101 % of control

O=C(O)C1=NN(c2ccc(S(=O)(=O)O)cc2)C(=O)C1N=Nc1ccc(S(=O)(=O)O)cc1 (stereo not given)
inactive: dose: 50.0 mg/kg/injection, schedule: Q01DX009 (ip), vehicle: saline 95 % of control | dose: 100.0 mg/kg/injection, schedule: Q01DX009 (ip), vehicle: saline 100 % of control | dose: 200.0 mg/kg/injection, schedule: Q01DX009 (ip), vehicle: saline 100 % of control | dose: 400.0 mg/kg/injection, schedule: Q01DX009 (ip), vehicle: saline 95 % of control

CSc1c(Cl)cc(Cl)cc1C(=O)O
inactive: dose: 16.5 mg/kg/injection, schedule: Q01DX009 (ip), vehicle: saline with Tween-80 100 % of control and 110 % of control | [3] 105 % of control and 106 % of control | dose: 37.5 mg/kg/injection, schedule: Q01DX009 (ip), vehicle: saline with Tween-80 117 % of control and 97 % of control | dose: 50.0 mg/kg/injection, schedule: Q01DX009 (ip), vehicle: saline + alcohol 112 % of control | dose: 100.0 mg/kg/injection, schedule: Q01DX009 (ip), vehicle: saline + alcohol 110 % of control | dose: 200.0 mg/kg/injection, schedule: Q01DX009 (ip), vehicle: saline + alcohol 112 % of control

C=C(C)C1CC=C(C)/C(=N/NC(=O)c2ccccn2)C1 (stereo not given)
inactive: dose: 100.0 mg/kg/injection, schedule: Q04DX003 (ip), vehicle: Klucel (hydroxypropylcellulose) (HPC) 111 % of control | dose: 200.0 mg/kg/injection, schedule: Q04DX003 (ip), vehicle: Klucel (hydroxypropylcellulose) (HPC) 94 % of control | dose: 400.0 mg/kg/injection, schedule: Q04DX003 (ip), vehicle: Klucel (hydroxypropylcellulose) (HPC) 94 % of control

CC(C)(C)c1ccc(OCc2cnc[nH]2)cc1
inactive: dose: 25.0 mg/kg/injection, schedule: Q01DX001 (ip), vehicle: saline 102 % of control | dose: 50.0 mg/kg/injection, schedule: Q01DX001 (ip), vehicle: saline 101 % of control | dose: 100.0 mg/kg/injection, schedule: Q01DX001 (ip), vehicle: saline 110 % of control
